# Target: human sodium ion channel 1.7 (hNav1.7) (Homo sapiens, UniProt Q15858)
# Assay: Blocking effect against sodium ion channel Nav1.7, IonFlux16 auto patch clamp in hNav1.7 HEK293 cells
# Format: cell-based
# Conditions: hNav1.7 HEK293 cells; inhibition of peak current after 50 seconds treatment; eight concentrations; read-out: IC50
# Chain of human sodium ion channel 1.7 (hNav1.7) (Q15858 whole entry): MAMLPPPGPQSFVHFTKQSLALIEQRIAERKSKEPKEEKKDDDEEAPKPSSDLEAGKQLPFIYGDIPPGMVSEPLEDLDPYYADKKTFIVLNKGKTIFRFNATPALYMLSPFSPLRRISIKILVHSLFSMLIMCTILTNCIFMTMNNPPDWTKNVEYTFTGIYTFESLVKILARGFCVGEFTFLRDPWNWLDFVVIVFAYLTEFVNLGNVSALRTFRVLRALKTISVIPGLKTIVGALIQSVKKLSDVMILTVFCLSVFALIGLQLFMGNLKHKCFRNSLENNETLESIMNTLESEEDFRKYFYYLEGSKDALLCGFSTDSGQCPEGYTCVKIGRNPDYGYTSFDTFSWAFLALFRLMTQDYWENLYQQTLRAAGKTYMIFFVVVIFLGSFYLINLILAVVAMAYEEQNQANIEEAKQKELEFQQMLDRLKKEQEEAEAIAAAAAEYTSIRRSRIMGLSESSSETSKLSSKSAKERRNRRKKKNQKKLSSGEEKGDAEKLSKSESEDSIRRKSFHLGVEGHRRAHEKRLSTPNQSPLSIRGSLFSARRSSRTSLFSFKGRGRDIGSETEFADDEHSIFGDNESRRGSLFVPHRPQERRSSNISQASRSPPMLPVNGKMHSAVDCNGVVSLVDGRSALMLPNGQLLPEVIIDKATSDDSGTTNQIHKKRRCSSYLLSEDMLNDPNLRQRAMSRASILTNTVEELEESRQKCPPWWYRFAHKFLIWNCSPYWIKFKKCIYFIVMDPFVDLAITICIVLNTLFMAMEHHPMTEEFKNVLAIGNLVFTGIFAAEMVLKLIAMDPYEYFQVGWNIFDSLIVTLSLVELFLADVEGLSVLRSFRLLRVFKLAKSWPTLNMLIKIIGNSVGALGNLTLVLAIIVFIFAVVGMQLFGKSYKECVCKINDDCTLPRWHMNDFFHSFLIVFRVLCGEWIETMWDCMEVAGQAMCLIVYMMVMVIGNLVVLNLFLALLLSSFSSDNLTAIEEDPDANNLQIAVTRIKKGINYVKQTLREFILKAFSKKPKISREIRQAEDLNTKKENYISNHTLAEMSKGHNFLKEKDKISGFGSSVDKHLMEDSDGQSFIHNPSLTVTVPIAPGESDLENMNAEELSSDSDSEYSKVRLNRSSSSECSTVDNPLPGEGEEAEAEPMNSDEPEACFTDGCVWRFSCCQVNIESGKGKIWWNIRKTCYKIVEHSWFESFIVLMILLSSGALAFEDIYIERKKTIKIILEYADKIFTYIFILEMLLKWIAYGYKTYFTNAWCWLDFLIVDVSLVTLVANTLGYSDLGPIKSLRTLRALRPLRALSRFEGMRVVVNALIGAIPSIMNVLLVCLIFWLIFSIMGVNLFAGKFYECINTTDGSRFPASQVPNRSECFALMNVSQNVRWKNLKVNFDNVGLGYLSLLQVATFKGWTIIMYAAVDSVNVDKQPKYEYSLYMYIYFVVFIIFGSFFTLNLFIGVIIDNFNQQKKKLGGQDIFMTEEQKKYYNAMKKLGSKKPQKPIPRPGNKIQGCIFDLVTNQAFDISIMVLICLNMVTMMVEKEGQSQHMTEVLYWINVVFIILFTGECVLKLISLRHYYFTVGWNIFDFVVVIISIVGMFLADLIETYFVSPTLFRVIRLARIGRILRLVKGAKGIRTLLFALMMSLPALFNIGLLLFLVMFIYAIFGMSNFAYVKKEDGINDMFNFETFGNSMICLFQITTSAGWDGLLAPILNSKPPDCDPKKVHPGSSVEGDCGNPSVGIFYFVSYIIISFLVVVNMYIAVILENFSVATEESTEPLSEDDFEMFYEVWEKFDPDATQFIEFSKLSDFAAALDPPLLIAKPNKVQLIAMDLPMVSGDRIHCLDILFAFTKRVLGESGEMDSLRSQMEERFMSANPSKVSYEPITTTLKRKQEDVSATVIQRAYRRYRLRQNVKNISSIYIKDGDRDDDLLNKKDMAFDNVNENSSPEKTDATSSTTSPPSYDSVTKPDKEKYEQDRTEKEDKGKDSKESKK
row,IC50 [µM],Structure (SMILES)
1,0.56,"CS(=O)(=O)NC(=O)c1ccc(-n2nc(-c3cccc(F)c3)c3cc(Cl)ccc32)c(F)c1 [Example 125, 4-(5-chloro-3-(3-fluorophenyl)-1H-indazol-1-yl)-3-fluoro-N-(methylsulfonyl)benzamide]"
2,1.21,"CS(=O)(=O)NC(=O)c1ccc(-n2nc(-c3ccccc3F)c3cc(Cl)ccc32)c(C#N)c1 [Example 102, 4-(5-chloro-3-(2-fluorophenyl)-1H-indazol-1-yl)-3-cyano-N-(methylsulfonyl)benzamide]"
3,0.727,"CS(=O)(=O)NC(=O)c1cc(F)c(-n2nc(-c3ccc(F)cc3F)c3cc(Cl)ccc32)cc1Cl [Example 115, 2-chloro-4-(5-chloro-3-(2,4-difluorophenyl)-1H-indazol-1-yl)-5-fluoro-N-(methylsulfonyl)benzamide]"
4,0.267,"CS(=O)(=O)NC(=O)c1cc(F)c(-n2nc(-c3cccc(C(F)(F)F)c3)c3cc(Cl)ccc32)cc1Cl [Example 110, 2-chloro-4-(5-chloro-3-(3-(trifluoromethyl)phenyl)-1H-indazol-1-yl)-5-fluoro-N-(methylsulfonyl)benzamide]"
5,0.33,"CS(=O)(=O)NC(=O)c1cc(Cl)c(-n2nc(-c3ccc(C(F)(F)F)cc3)c3ccccc32)cc1F [Example 178, 5-chloro-2-fluoro-N-(methylsulfonyl)-4-(3-(4-(trifluoromethyl)phenyl)-1H-indazol-1-yl)benzamide]"
6,0.35,"CS(=O)(=O)NC(=O)c1ccc(-n2nc(-c3ccc(F)cc3)c3cc(Cl)ccc32)c(F)c1 [Example 123, 4-(5-chloro-3-(4-fluorophenyl)-1H-indazol-1-yl)-3-fluoro-N-(methylsulfonyl)benzamide]"
7,0.04,"CS(=O)(=O)NC(=O)c1cc(Cl)c(-n2nc(-c3ccc(F)cc3F)c3cc(Cl)ccc32)cc1F [Example 56, 5-chloro-4-(5-chloro-3-(2,4-difluorophenyl)-1H-indazol-1-yl)-2-fluoro-N-(methylsulfonyl)benzamide]"
8,7.91,"CS(=O)(=O)NC(=O)c1cc(Cl)c(-n2nc(-c3ccc(N)cc3)c3cc(Cl)ccc32)cc1F [Example 82, 4-(3-(4-aminophenyl)-5-chloro-1H-indazol-1-yl)-5-chloro-2-fluoro-N-(methylsulfonyl)benzamide]"
9,> 10,"CS(=O)(=O)NC(=O)c1ccc(-n2nc(-c3cccc(C#N)c3)c3cc(Cl)ccc32)c(C#N)c1 [Example 95, 4-(5-chloro-3-(3-cyanophenyl)-1H-indazol-1-yl)-3-cyano-N-(methylsulfonyl)benzamide]"
10,0.026,"CS(=O)(=O)NC(=O)c1cc(Cl)c(-n2nc(-c3cccc(F)c3)c3cc(Cl)ccc32)cc1F [Example 54, 5-chloro-4-(5-chloro-3-(3-fluorophenyl)-1H-indazol-1-yl)-2-fluoro-N-(methylsulfonyl)benzamide]"

# Further lines, the molecule ahead of its results:
row,Structure (SMILES),IC50 [µM]
1,"CS(=O)(=O)NC(=O)c1cc(Cl)c(-n2nc(-c3cccc(C(F)(F)F)c3)c3ccccc32)cc1F [Example 172, 5-chloro-2-fluoro-N-(methylsulfonyl)-4-(3-(3-(trifluoromethyl)phenyl)-1H-indazol-1-yl)benzamide]",0.14
2,"CS(=O)(=O)NC(=O)c1cc(Cl)c(-n2nc(Cl)c3cc(-c4ccc(Cl)cc4F)ccc32)cc1F [Example 247, 5-chloro-4-(3-chloro-5-(4-chloro-2-fluorophenyl)-1H-indazol-1-yl)-2-fluoro-N-(methylsulfonyl)benzamide]",0.304
3,"COc1ccc2c(c1)c(Cl)cn2-c1cc(F)c(C(=O)NS(C)(=O)=O)cc1Cl [Example 268, 5-chloro-4-(3-chloro-5-methoxy-1H-indol-1-yl)-2-fluoro-N-(methylsulfonyl)benzamide]",0.608
4,"CS(=O)(=O)NC(=O)c1cc(Cl)c(-n2cc(-c3ccc(C(F)(F)F)cc3)c3cccnc32)cc1F [Example 218, 5-chloro-2-fluoro-N-(methylsulfonyl)-4-(3-(4-(trifluoromethyl)phenyl)-1H-pyrrolo[2,3-b]pyridin-1-yl)benzamide]",0.29
5,"CS(=O)(=O)NC(=O)c1cc(Cl)c(-n2cc(-c3ccc(Cl)nc3)c3cc(Cl)ccc32)cc1F [Example 273, 5-chloro-4-(5-chloro-3-(6-chloropyridin-3-yl)-1H-indol-1-yl)-2-fluoro-N-(methylsulfonyl)benzamide]",0.18
6,"CS(=O)(=O)NC(=O)c1cc(Cl)c(-n2cc(Cl)c3ccc(OCc4ccccc4)cc32)cc1F [Example 271, 4-(6-(benzyloxy)-3-chloro-1H-indol-1-yl)-5-chloro-2-fluoro-N-(methylsulfonyl)benzamide]",2.13
7,"CS(=O)(=O)NC(=O)c1cc(Cl)c(-n2nc(Cl)c3cc(-c4cccc(C(F)(F)F)c4)ccc32)cc1F [Example 249, 5-chloro-4-(3-chloro-5-(3-(trifluoromethyl)phenyl)-1H-indazol-1-yl)-2-fluoro-N-(methylsulfonyl)benzamide]",0.074
8,"CS(=O)(=O)NC(=O)c1cc(Cl)c(-n2cc(-c3ccc(F)cc3F)c3cc(F)cnc32)cc1F [Example 203, 5-chloro-4-(3-(2,4-difluorophenyl)-5-fluoro-1H-pyrrolo[2,3-b]pyridin-1-yl)-2-fluoro-N-(methylsulfonyl)benzamide]",0.08
9,"CS(=O)(=O)NC(=O)c1cc(Cl)c(-n2nc(Cl)c3cc(-c4cncc(Cl)c4)ccc32)cc1F [Example 242, 5-chloro-4-(3-chloro-5-(5-chloropyridin-3-yl)-1H-indazol-1-yl)-2-fluoro-N-(methylsulfonyl)benzamide]",0.809
10,"CS(=O)(=O)NC(=O)c1cc(Cl)c(-n2cc(-c3ccccc3Cl)c3cc(F)cnc32)cc1F [Example 207, 5-chloro-4-(3-(2-chlorophenyl)-5-fluoro-1H-pyrrolo[2,3-b]pyridin-1-yl)-2-fluoro-N-(methylsulfonyl)benzamide]",0.14
11,"CS(=O)(=O)NC(=O)c1cc(Cl)c(-n2nc(Cl)c3cc(-c4ccncc4)ccc32)cc1F [Example 232, 5-chloro-4-(3-chloro-5-(pyridin-4-yl)-1H-indazol-1-yl)-2-fluoro-N-(methylsulfonyl)benzamide]",1 to 3
12,"COc1ccc(-c2cnc3c(c2)c(Cl)cn3-c2cc(F)c(C(=O)NS(C)(=O)=O)cc2Cl)cc1 [Example 260, 5-chloro-4-(3-chloro-5-(4-methoxyphenyl)-1H-pyrrolo[2,3-b]pyridin-1-yl)-2-fluoro-N-(methylsulfonyl)benzamide]",0.47
13,"CS(=O)(=O)NC(=O)c1cc(Cl)c(-n2nc(-c3ccnc(F)c3)c3cc(Cl)ccc32)cc1F [Example 68, 5-chloro-4-(5-chloro-3-(2-fluoropyridin-4-yl)-1H-indazol-1-yl)-2-fluoro-N-(methylsulfonyl)benzamide]",0.59
14,"CS(=O)(=O)NC(=O)c1cc(Cl)c(-n2nc(Cl)c3cc(Cl)ccc32)cc1F [Example 9, 5-chloro-4-(3,5-dichloro-1H-indazol-1-yl)-2-fluoro-N-(methylsulfonyl)benzamide]",0.117
15,"CS(=O)(=O)NC(=O)c1cc(Cl)c(-n2nc(Cl)c3cc(OCc4ccccc4F)ccc32)cc1F [Example 37, 5-chloro-4-(3-chloro-5-((2-fluorobenzyl)oxy)-1H-indazol-1-yl)-2-fluoro-N-(methylsulfonyl)benzamide]",0.159

# From patent publication US10590078B2, “Sodium channel blockers” (Daewoong Pharmaceutical Co., Ltd., priority 2015, dated 2020)
